# From article PMC10418113 (bioRxiv, 2023)
# How the values were obtained:
# [1] = molecular target: T1, DLD (E3 subunit of purified porcine PDHC) (Sus scrofa, UniProt P09623); assay: diaphorase activity, NBT-formazan at […] nm and in-gel; assay type: biochemical; conditions: 0.1 mg/mL NADH, 0.2 mg/mL NBT, 50 mM potassium phosphate pH 7.0
# T1 sequence (P09623 36-509): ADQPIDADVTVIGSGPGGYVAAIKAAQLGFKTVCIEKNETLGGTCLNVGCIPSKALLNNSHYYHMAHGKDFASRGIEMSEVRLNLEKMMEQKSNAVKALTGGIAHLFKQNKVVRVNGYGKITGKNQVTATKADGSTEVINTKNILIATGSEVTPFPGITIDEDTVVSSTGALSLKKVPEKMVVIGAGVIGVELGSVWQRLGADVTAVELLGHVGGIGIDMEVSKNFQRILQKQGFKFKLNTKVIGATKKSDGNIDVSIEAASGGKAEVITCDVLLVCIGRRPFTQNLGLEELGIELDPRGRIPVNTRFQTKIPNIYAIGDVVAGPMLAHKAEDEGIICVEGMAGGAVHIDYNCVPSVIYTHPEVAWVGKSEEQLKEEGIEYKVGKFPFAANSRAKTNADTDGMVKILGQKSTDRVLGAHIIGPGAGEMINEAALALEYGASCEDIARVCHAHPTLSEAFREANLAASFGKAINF
# BCKDC (E2 subunit DBT) = BCKDC (E2 subunit DBT) (Mus musculus, UniProt P53395); assay: BCKDC activity of matrix lysate after preincubation, isovaleryl-CoA by LCMS; assay type: biochemical; conditions: read-out: % inhibition at 0.1 μM
# Sequence of BCKDC (E2 subunit DBT) (P53395 62-482): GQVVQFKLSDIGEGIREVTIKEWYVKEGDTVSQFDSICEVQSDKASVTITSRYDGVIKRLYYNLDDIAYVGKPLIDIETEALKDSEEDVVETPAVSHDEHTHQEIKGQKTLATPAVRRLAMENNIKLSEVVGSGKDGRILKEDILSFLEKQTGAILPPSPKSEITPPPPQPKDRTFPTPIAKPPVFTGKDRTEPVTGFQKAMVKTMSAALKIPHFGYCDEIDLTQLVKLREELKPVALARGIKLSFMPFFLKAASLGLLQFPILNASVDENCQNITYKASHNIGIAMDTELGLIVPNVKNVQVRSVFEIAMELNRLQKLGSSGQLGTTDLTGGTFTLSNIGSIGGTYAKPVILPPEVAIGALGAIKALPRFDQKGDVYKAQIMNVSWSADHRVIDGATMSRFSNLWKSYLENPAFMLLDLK
# Sequence of BCKDC (E2 subunit DBT) (P50136 43-442 partner): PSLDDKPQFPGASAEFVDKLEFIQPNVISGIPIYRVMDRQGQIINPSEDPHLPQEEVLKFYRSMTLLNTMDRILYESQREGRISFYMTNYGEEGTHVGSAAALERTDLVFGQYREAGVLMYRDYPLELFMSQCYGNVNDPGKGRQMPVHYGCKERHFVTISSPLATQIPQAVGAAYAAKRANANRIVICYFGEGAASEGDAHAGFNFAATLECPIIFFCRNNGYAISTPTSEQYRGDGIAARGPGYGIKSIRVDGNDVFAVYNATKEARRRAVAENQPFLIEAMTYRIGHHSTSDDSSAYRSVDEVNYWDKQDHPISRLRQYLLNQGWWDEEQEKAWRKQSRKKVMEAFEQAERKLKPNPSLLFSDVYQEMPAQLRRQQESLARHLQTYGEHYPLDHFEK
# Sequence of BCKDC (E2 subunit DBT) (Q6P3A8 49-390 partner): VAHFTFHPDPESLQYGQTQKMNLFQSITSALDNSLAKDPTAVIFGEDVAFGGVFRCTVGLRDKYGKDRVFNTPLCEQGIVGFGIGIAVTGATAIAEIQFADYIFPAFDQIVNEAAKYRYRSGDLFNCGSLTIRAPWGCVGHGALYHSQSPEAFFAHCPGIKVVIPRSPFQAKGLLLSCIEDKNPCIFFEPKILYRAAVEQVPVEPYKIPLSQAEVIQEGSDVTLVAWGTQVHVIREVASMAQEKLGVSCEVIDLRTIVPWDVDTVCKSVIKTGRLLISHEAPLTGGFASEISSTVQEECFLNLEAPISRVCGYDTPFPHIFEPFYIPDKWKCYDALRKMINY
# Sequence of BCKDC (E2 subunit DBT) (O08749 36-509 partner): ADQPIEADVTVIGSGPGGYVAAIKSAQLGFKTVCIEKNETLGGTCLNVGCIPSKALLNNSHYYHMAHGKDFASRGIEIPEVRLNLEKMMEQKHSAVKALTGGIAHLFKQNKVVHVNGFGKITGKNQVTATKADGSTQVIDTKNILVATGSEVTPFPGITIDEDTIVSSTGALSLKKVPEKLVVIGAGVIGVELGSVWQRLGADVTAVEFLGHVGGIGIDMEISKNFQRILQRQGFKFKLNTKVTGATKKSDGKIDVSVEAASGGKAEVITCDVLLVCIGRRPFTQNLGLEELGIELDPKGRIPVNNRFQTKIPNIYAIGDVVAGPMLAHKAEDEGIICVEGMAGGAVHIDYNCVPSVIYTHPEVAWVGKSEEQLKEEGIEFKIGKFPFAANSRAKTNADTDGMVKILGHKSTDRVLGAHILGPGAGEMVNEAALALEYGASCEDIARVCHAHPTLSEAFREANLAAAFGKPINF
inhibition at 0.1 µM (BCKDC (E2 subunit DBT)) [%],SMILES,"diaphorase activity, NBT-formazan at 568 nm and in-gel [1]"
,NC(=O)C1=CN([C@@H]2O[C@H](COP(=O)(O)OP(=O)(O)OC[C@H]3O[C@@H](n4cnc5c(N)ncnc54)[C@H](O)[C@@H]3O)[C@@H](O)[C@H]2O)C=CC1 [NADH],"As a blank control, the same amount of mitochondria lysate was mixed with assay buffer without NADH"
> 50,CC(C)(COP(=O)(O)OP(=O)(O)OC[C@H]1O[C@@H](n2cnc3c(N)ncnc32)[C@H](O)[C@@H]1OP(=O)(O)O)[C@@H](O)C(=O)NCCC(=O)NCCSN=O [SNO-CoA],
